Six molecules from ChEMBL document CHEMBL5465560, “Selectivity Literature for EUbOPEN Chemogenomic Library” (2024) can be followed below.

Positions count from the first letter of the chain named. Where only a bound is given, the exact number is not on record here.

In test [1] the target is Tyrosine-protein kinase Yes (Homo sapiens) (UniProt P07947). In words: Selectivity interaction (ProQinase) EUB0000171b YES1.
In test [2] the target is RAC-beta serine/threonine-protein kinase (Homo sapiens) (UniProt P31751). As to conditions: at 10 µM.
In test [3] the target is Protein arginine N-methyltransferase 5 (Homo sapiens, UniProt O14744). The test can be described thus: Selectivity interaction (Methyltransferase screen (Scintillation proximity assays)) EUB0000255b PRMT5.
For test [4], the target named is Receptor-type tyrosine-protein kinase FLT3 (Homo sapiens) (UniProt P36888). The test can be described thus: (§1) Selectivity interaction (KinomeScan (DiscoverX)) EUB0000695a FLT3. Conditions: at 100 nM.
In test [5] the test system is T1, Receptor-type tyrosine-protein kinase FLT3 (Homo sapiens), P36888 [D835H].
T1 sequence (whole entry): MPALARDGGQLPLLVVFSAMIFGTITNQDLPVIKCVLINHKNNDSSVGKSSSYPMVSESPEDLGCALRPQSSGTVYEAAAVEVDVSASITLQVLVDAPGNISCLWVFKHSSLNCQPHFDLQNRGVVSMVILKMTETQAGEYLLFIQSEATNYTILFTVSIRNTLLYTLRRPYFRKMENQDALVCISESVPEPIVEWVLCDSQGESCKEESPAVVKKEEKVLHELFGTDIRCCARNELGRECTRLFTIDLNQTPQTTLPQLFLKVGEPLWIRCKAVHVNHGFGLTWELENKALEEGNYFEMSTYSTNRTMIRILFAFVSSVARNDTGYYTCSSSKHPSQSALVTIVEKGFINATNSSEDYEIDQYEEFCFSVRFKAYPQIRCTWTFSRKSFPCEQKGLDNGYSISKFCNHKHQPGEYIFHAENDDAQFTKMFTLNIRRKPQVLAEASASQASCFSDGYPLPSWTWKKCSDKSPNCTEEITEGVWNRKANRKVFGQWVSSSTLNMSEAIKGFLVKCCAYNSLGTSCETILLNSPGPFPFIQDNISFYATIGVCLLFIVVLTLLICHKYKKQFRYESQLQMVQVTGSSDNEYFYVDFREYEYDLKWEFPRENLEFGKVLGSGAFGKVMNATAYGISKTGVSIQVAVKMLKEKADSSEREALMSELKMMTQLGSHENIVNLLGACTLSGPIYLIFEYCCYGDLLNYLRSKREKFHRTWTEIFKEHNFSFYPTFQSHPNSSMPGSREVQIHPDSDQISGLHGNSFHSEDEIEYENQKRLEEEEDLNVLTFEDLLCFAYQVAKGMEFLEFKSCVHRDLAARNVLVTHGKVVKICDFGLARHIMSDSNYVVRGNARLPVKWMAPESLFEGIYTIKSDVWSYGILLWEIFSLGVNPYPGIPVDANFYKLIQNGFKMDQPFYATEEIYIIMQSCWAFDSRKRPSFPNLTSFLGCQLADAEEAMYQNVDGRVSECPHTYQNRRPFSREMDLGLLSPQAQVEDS
The test is described as §1. Conditions: at 100 nM.

The test system of test [6] is T2, Receptor-type tyrosine-protein kinase FLT3 (Homo sapiens), P36888 [D835V].
T2 sequence (whole entry): T1 sequence (whole entry) with H835V
Described as §1. Conditions: at 100 nM.

Test [7] concerns Receptor-type tyrosine-protein kinase FLT3 (Homo sapiens), P36888 [UNDEFINED MUTATION]. Described as §1. As to conditions: at 100 nM.
Test [8] concerns the target T3, TGF-beta receptor type-1 (Homo sapiens) (UniProt P36897).
T3 sequence (whole entry): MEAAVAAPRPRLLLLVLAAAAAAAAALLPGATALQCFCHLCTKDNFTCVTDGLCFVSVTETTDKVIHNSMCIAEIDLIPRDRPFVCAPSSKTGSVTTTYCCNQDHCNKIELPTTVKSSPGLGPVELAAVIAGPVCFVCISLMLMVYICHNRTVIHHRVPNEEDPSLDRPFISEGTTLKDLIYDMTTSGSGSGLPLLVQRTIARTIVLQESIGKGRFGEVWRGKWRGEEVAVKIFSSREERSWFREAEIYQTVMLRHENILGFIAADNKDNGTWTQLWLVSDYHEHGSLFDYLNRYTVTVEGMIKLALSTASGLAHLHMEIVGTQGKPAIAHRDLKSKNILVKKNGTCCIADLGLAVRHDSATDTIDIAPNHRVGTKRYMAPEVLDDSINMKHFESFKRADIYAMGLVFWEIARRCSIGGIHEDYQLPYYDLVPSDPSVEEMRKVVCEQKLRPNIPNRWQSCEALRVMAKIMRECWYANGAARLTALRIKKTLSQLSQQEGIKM
In words: Selectivity interaction (LanthaScreen Eu Kinase Binding Assay) EUB0001632a TGFBR1. Conditions: at 10 µM.

The target in test [9] is Serine/threonine-protein kinase 38 (Homo sapiens) (UniProt Q15208). In words: Selectivity interaction (KinomeScan (DiscoverX)) EUB0001619a STK38. Conditions: at 1 µM.
Sequence of Serine/threonine-protein kinase 38 (Homo sapiens) (Q15208 2-465 limits assumed): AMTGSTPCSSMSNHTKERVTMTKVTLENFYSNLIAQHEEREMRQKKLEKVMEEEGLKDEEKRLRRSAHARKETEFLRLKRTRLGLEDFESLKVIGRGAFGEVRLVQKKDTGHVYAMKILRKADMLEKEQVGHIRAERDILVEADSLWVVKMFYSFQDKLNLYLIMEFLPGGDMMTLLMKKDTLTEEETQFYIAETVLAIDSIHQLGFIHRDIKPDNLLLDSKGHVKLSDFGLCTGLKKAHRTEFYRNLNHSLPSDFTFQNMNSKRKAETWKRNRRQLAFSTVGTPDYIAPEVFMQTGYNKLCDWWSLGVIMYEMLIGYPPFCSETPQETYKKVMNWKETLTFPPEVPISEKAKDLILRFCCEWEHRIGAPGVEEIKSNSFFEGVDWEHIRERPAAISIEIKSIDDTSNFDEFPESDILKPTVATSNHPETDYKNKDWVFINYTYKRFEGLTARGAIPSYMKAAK

Sequence of Protein arginine N-methyltransferase 5 (O14744 whole entry): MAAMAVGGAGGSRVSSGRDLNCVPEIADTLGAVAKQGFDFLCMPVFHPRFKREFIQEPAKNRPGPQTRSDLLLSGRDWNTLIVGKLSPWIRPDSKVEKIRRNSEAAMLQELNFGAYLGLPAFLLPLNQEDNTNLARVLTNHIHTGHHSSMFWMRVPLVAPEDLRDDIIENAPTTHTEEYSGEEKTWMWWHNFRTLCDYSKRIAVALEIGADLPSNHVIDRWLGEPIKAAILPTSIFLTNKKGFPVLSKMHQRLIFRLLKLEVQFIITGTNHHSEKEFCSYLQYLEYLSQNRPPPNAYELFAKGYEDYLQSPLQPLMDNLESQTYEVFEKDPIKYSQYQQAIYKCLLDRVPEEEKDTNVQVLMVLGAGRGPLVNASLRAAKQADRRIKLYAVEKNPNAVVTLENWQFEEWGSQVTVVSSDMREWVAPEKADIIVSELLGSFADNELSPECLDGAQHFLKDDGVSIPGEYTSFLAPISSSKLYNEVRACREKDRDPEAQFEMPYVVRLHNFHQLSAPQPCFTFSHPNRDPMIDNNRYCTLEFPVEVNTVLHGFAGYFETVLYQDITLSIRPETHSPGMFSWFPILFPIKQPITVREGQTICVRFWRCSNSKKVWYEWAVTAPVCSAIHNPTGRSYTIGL
Sequence of Tyrosine-protein kinase Yes (Homo sapiens) (P07947 2-543 limits assumed): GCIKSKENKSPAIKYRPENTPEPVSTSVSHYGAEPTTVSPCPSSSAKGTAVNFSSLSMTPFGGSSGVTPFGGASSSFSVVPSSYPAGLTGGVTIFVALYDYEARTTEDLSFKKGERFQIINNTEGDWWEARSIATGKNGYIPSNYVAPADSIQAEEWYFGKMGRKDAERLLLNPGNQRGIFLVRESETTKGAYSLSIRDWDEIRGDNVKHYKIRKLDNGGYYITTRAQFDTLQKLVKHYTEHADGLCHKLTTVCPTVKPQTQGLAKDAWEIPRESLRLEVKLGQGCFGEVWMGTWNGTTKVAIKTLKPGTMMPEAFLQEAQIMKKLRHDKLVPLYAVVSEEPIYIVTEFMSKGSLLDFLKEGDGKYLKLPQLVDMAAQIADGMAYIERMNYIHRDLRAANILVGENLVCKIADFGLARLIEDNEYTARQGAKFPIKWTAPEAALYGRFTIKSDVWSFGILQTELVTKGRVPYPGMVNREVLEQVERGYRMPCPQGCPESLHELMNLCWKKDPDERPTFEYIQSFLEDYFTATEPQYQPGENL
Sequence of RAC-beta serine/threonine-protein kinase (Homo sapiens) (P31751 whole entry): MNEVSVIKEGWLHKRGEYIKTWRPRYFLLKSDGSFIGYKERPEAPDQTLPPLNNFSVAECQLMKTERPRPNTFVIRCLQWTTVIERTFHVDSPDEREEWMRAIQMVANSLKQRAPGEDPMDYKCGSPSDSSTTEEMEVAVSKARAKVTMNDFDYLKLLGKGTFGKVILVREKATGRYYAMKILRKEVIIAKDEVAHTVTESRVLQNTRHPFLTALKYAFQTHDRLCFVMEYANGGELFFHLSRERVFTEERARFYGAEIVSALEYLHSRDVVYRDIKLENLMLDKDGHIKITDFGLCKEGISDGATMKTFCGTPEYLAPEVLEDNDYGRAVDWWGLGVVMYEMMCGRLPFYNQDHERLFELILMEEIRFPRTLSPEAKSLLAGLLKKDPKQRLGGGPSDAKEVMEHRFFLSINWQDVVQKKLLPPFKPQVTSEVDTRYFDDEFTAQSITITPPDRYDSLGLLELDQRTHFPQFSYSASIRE

Regarding `C=CC(=O)Nc1cccc(C(=O)Nc2ccc(Nc3cc(-c4[nH]c(SC)nc4C)ccn3)cc2)c1`, the % of control in test [1] (at 1 µM) stood at 89%; in test [1] (at 5 µM), 75%.
As for `Cc1cc([C@@H](C)Nc2ccccc2C(=O)O)c2nc(N3CCOCC3)cc(=O)n2c1` [AZD-6482], in test [2], the % of control came out at 86%.
In the case of `COCCN1CCC(c2cc(CN(C)C(=O)c3cccc(Oc4ccccc4)c3)ccn2)CC1`, the % activity in [3] (at 1 µM) was > 95%; in [3] (at 10 µM) it was > 90%.
For the molecule `Cc1cc(F)c(C(=O)Nc2cccc(-c3nncn3C(C)C)n2)cc1-n1cnc(C2CC2)c1`, the % of control in [4], in test [5], in test [6] and in [7] was 100% throughout.
In test [8], `Cn1cc(-n2cnc3c(NCc4nc5cc(Cl)c(Cl)cc5[nH]4)nc(N4CCOCC4)nc32)cn1` showed a % of inhibition of 0.691%.
In turn, `N#Cc1cccc(-c2c[nH]c3ncnc(N4CCOCC4)c23)c1` registered a % of control in test [9] of 89%.
